Measurements reported in EP0013144A1, “Substituted diphenylamine derivatives, compositions and herbicidal uses thereof, and processes for their preparation” (ICI AUSTRALIA LIMITED, priority 1978, dated 1980).

Assays:
Format in all cases: in vivo
Sunflower [1] = experiment: Post-emergence herbicidal activity (Example 32); conditions: 3 weeks after spraying
Method in brief: (§1)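 Herbicidal effect is expressed as a visual 0–3 injury score relative to untreated controls, read 3 weeks after foliar application to glasshouse seedlings about 10 to 12.5 cm tall. Test compositions are water-diluted surfactant-based concentrates or suspensions.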

Ipomea [2] = experiment: Post-emergence herbicidal activity (Example 32); conditions: 3 weeks after spraying
Method in brief: as §1

Japanese millet [3] = experiment: Post-emergence herbicidal activity (Example 32); conditions: 3 weeks after spraying
Method in brief: as §1

Ryegrass [4] = experiment: Post-emergence herbicidal activity (Example 32); conditions: 3 weeks after spraying
Method in brief: as §1

Sorghum halepense [5] = experiment: Selective herbicidal activity, seed boxes (Example 34); conditions: weed; 0.15 kg/ha; sprayed on one week old seedlings; 29 days after spraying; triplicate
Excerpt: (§2) The seeds of the test species were sprinkled onto . the surface of soil in seed boxes and covered with a thin layer of sand. The boxes were lightly watered with an overhead spray and placed in a glasshouse for one week to permit germination of the seeds and plant growth to a height of 4 to 5 inches. […] For comparison purposes at least one box containing one week old seedlings was sprayed lightly with water only. After spraying the boxes were returned to the glasshouse for a further 29 days after which the effect of the treatment was visually assessed.

Japanese millet [6] = experiment: as above; conditions: weed; 0.15 kg/ha; sprayed on one week old seedlings; 29 days after spraying; triplicate
Excerpt: as §2

Annual Rye Grass = experiment: as above; conditions: weed; 0.15 kg/ha; sprayed on one week old seedlings; 29 days after spraying; triplicate
Excerpt: as §2

Wild Oats [7] = experiment: as above; conditions: weed; 0.15 kg/ha; sprayed on one week old seedlings; 29 days after spraying; triplicate
Excerpt: as §2

Setaria aviceps = experiment: as above; conditions: weed; 0.15 kg/ha; sprayed on one week old seedlings; 29 days after spraying; triplicate
Excerpt: as §2

Soyabean = experiment: as above; conditions: crop; 1.5 kg/ha; sprayed on one week old seedlings; 29 days after spraying; triplicate
Excerpt: as §2

Cotton = experiment: as above; conditions: crop; 1.5 kg/ha; sprayed on one week old seedlings; 29 days after spraying; triplicate
Excerpt: as §2

Mustard = experiment: Pre-emergence herbicidal activity (Example 31); conditions: after three weeks
Method in brief: (§3)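 Glasshouse test: sown seed boxes sprayed pre-emergence with diluted formulation, unsprayed boxes as reference. Visual damage scored 0–3+ after 3 weeks.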

Sunflower [8] = experiment: Pre-emergence herbicidal activity (Example 31); conditions: after three weeks
Method in brief: as §3

Ipomea [9] = experiment: Pre-emergence herbicidal activity (Example 31); conditions: after three weeks
Method in brief: as §3

Japanese millet [10] = experiment: Pre-emergence herbicidal activity (Example 31); conditions: after three weeks
Method in brief: as §3

Wheat [11] = experiment: Post-emergence herbicidal activity (Example 32); design: key: 0-3 scale: 0 = 0-25% damage, 3 = 75-99% kill, 3+ = 100% kill; conditions: 3 weeks after spraying
Method in brief: as §1

Wheat [12] = experiment: Pre-emergence herbicidal activity (Example 31); design: key: 0-3 scale: 0 = 0-25% damage, 3 = 75-99% kill, 3+ = 100% kill; conditions: after three weeks
Method in brief: as §3

Ryegrass [13] = experiment: Pre-emergence herbicidal activity (Example 31); design: key: 0-3 scale: 0 = 0-25% damage, 3 = 75-99% kill, 3+ = 100% kill; conditions: after three weeks
Method in brief: as §3

Wild Oats [14] = experiment: Post-emergence herbicidal activity (Example 32); conditions: 3 weeks after spraying
Method in brief: as §1

Wild Oats [15] = experiment: Pre-emergence herbicidal activity (Example 31); conditions: after three weeks
Method in brief: as §3

Digitaria sanguinalis = experiment: Selective herbicidal activity, young pot plants (Example 35); conditions: weed; post-emergence; 0.08 kg/ha; after 20 days; mean of triplicate
Description: (§4) The compounds were formulated for test by mixing an appropriate amount with 5 ml of an emulsion prepared by diluting 160 ml of a solution containing 21.8 g per litre of "Span" 80 and 78.2 g per litre of "Tween" 20 in methylcyclohexanone to 500 ml with water. "Span" 80 is a Trade Mark for a surface-active agent comprising sorbitan monolaurate. "Tween" 20 is a Trade Mark for a surface-active agent comprising a condensate of sorbitan monolaurate with 20 molar proportions of ethylene oxide. Each 5 ml emulsion containing a test compound was then diluted to 40 ml with water and sprayed on to young pot plants (post-emergence test) of the species named in Table 7 below. Damage to test plants was assessed after 20 days on a scale of 0 to 9 whereo 0 is 0 to 10% and 9 is 90 to 100% kill. The tests were carried out in triplicate and the mean results are recorded in Table 7 below.

Sorghum halepense [16] = experiment: as above; conditions: weed; post-emergence; 0.08 kg/ha; after 20 days; mean of triplicate
Description: as §4

Setaria viridis = experiment: as above; conditions: weed; post-emergence; 0.08 kg/ha; after 20 days; mean of triplicate
Description: as §4

Cotton (Deltapine) = experiment: as above; conditions: crop; post-emergence; 0.08 kg/ha; after 20 days; mean of triplicate
Description: as §4

Soyabean (Amsoy) = experiment: as above; conditions: crop; post-emergence; 0.08 kg/ha; after 20 days; mean of triplicate
Description: as §4

Echinochloa crus-galli = experiment: as above; conditions: weed; post-emergence; 0.08 kg/ha; after 20 days; mean of triplicate
Description: as §4

## CC(Oc1ccc(Nc2ccc(C(F)(F)F)cc2[N+](=O)[O-])cc1)C(=O)O (centres unmarked) [Compound 46, 2[4-(2-Nitro-4-trifluoromethylanilino)phenoxy]-propionic acid]
Sunflower [1]; 1 kg/ha
  damage to plants, Sf: 0 (0 represents 0 to 25% damage)
Sunflower [1]; 5 kg/ha
  damage to plants, Sf: 2
Ipomea [2]; 1 kg/ha
  damage to plants, Ip: 0 (0 represents 0 to 25% damage)
Ipomea [2]; 5 kg/ha
  damage to plants, Ip: 0 (0 represents 0 to 25% damage)
Japanese millet [3]; 1 kg/ha
  damage to plants, Jm: 3+ (3+ represents 100% kill)
Japanese millet [3]; 5 kg/ha
  damage to plants, Jm: 3+ (3+ represents 100% kill)
Ryegrass [4]; 1 kg/ha
  damage to plants, Rg: 3+ (3+ represents 100% kill)
Ryegrass [4]; 5 kg/ha
  damage to plants, Rg: 3+ (3+ represents 100% kill)
Sorghum halepense [5]
  percentage damage, Sh: 88 percentage
Japanese millet [6]
  percentage damage, Jm: 85 percentage
Annual Rye Grass
  percentage damage, Rg: 55 percentage
Wild Oats [7]
  percentage damage, Ot: 50 percentage
Setaria aviceps
  percentage damage, St: 55 percentage
Soyabean
  percentage damage, Sb: 38 percentage
Cotton
  percentage damage, Ct: 50 percentage
Mustard; 1 kg/ha
  damage to plants, Ms: 0 (0 represents from 0 to 25% damage)
Mustard; 5 kg/ha
  damage to plants, Ms: 0 (0 represents from 0 to 25% damage)
Sunflower [8]; 1 kg/ha
  damage to plants, Sf: 0 (0 represents from 0 to 25% damage)
Sunflower [8]; 5 kg/ha
  damage to plants, Sf: 0 (0 represents from 0 to 25% damage)
Ipomea [9]; 1 kg/ha
  damage to plants, Ip: 0 (0 represents from 0 to 25% damage)
Ipomea [9]; 5 kg/ha
  damage to plants, Ip: 0 (0 represents from 0 to 25% damage)
Japanese millet [10]; 1 kg/ha
  damage to plants, Jm: 3 (3 represents 75 to 99% kill)
Japanese millet [10]; 5 kg/ha
  damage to plants, Jm: 3+ (3+ represents 100% kill)
Wheat [11]; 1 kg/ha
  damage to plants, Wh: 2
Wheat [11]; 5 kg/ha
  damage to plants, Wh: 3+ (3+ represents 100% kill)
Wheat [12]; 1 kg/ha
  damage to plants, Wh: 0 (0 represents from 0 to 25% damage)
Wheat [12]; 5 kg/ha
  damage to plants, Wh: 2
Ryegrass [13]; 1 kg/ha
  damage to plants, Rg: 2
Ryegrass [13]; 5 kg/ha
  damage to plants, Rg: 3+ (3+ represents 100% kill)

## COC(=O)C(C)Oc1ccc(Nc2ccc(C(F)(F)F)cc2[N+](=O)[O-])cc1 (centres unmarked) [Compound 21, Methyl 2-[4-(2-nitro-4-trifluoromethylanilino)phenoxy]-propionate]
Ipomea [2]; 1 kg/ha
  damage to plants, Ip: 0 (0 represents 0 to 25% damage)
Ipomea [2]; 5 kg/ha
  damage to plants, Ip: 2
Japanese millet [3]; 1 kg/ha
  damage to plants, Jm: 3+ (3+ represents 100% kill)
Japanese millet [3]; 5 kg/ha
  damage to plants, Jm: 3+ (3+ represents 100% kill)
Wild Oats [14]; 1 kg/ha
  damage to plants, Ot: 3 (3 represents 75 to 99% kill)
Wild Oats [14]; 5 kg/ha
  damage to plants, Ot: 3+ (3+ represents 100% kill)
Ryegrass [4]; 1 kg/ha
  damage to plants, Rg: 3+ (3+ represents 100% kill)
Ryegrass [4]; 5 kg/ha
  damage to plants, Rg: 3+ (3+ represents 100% kill)
Mustard; 0.5 kg/ha
  damage to plants, Ms: 0 (0 represents from 0 to 25% damage)
Mustard; 1 kg/ha
  damage to plants, Ms: 0 (0 represents from 0 to 25% damage)
Mustard; 5 kg/ha
  damage to plants, Ms: 0 (0 represents from 0 to 25% damage)
Sunflower [8]; 0.5 kg/ha
  damage to plants, Sf: 0 (0 represents from 0 to 25% damage)
Sunflower [8]; 1 kg/ha
  damage to plants, Sf: 0 (0 represents from 0 to 25% damage)
Sunflower [8]; 5 kg/ha
  damage to plants, Sf: 0 (0 represents from 0 to 25% damage)
Ipomea [9]; 0.5 kg/ha
  damage to plants, Ip: 0 (0 represents from 0 to 25% damage)
Ipomea [9]; 1 kg/ha
  damage to plants, Ip: 0 (0 represents from 0 to 25% damage)
Ipomea [9]; 5 kg/ha
  damage to plants, Ip: 0 (0 represents from 0 to 25% damage)
Japanese millet [10]; 0.5 kg/ha
  damage to plants, Jm: 3+ (3+ represents 100% kill)
Japanese millet [10]; 1 kg/ha
  damage to plants, Jm: 3+ (3+ represents 100% kill)
Japanese millet [10]; 5 kg/ha
  damage to plants, Jm: 3+ (3+ represents 100% kill)
Wild Oats [15]; 0.5 kg/ha
  damage to plants, Ot: 3 (3 represents 75 to 99% kill)
Wild Oats [15]; 1 kg/ha
  damage to plants, Ot: 3+ (3+ represents 100% kill)
Wild Oats [15]; 5 kg/ha
  damage to plants, Ot: 3+ (3+ represents 100% kill)
Wheat [11]; 1 kg/ha
  damage to plants, Wh: 3 (3 represents 75 to 99% kill)
Wheat [11]; 5 kg/ha
  damage to plants, Wh: 3+ (3+ represents 100% kill)
Digitaria sanguinalis
  damage to test plants, Dg: 5
Sorghum halepense [16]
  damage to test plants, Sh: 9 (9 is 90 to 100% kill)
Setaria viridis
  damage to test plants, St: 8
Cotton (Deltapine)
  damage to test plants, Ct: 0 (0 is 0 to 10%)
Soyabean (Amsoy)
  damage to test plants, Sy: 0 (0 is 0 to 10%)
Echinochloa crus-galli
  damage to test plants, Ec: 5
Wheat [12]; 1 kg/ha
  damage to plants, Wh: 2
Ryegrass [13]; 0.5 kg/ha
  damage to plants, Rg: 3+ (3+ represents 100% kill)
Ryegrass [13]; 1 kg/ha
  damage to plants, Rg: 3+ (3+ represents 100% kill)
Ryegrass [13]; 5 kg/ha
  damage to plants, Rg: 3+ (3+ represents 100% kill)

## CC(Oc1ccc(Nc2ccc(C(F)(F)F)cc2[N+](=O)[O-])cc1)C(=O)[O-].[Na+] (centres unmarked) [Compound 65, 2-[4-(2-Nitro-4-trifluoromethylanilino)phenoxy]-propionic acid sodium salt]
Sorghum halepense [5]
  percentage damage, Sh: 80 percentage
Japanese millet [6]
  percentage damage, Jm: 100 percentage
Annual Rye Grass
  percentage damage, Rg: 35 percentage
Wild Oats [7]
  percentage damage, Ot: 58 percentage
Setaria aviceps
  percentage damage, St: 50 percentage
Soyabean
  percentage damage, Sb: 0 percentage
Cotton
  percentage damage, Ct: 0 percentage
Digitaria sanguinalis
  damage to test plants, Dg: 3
Sorghum halepense [16]
  damage to test plants, Sh: 8
Setaria viridis
  damage to test plants, St: 2
Cotton (Deltapine)
  damage to test plants, Ct: 0 (0 is 0 to 10%)
Soyabean (Amsoy)
  damage to test plants, Sy: 0 (0 is 0 to 10%)
Echinochloa crus-galli
  damage to test plants, Ec: 9 (9 is 90 to 100% kill)
